Measurements published in patent US20240099298A1, “BIOINSECTICIDAL COMPOSITIONS CONTAINING MONOTERPENES AND METHODS OF USE THEREOF” (priority 2017, published 2024).
Values after ≈ are worked out from the molar mass of the structure shown. Like-named read-outs stand apart in the source and are kept apart here. Marks after values point to notes of the source that are not given here.

Legend:
Aedes aegypti (mosquito) = experiment: Median knockdown concentration (KC50) test, mosquito; format: in vivo
Text: (§1) All treatments and controls were in triplicate.
(§2) Knockdown Activity of Monoterpenes.

[1] = system: A. japonicus (parasitic wasp); experiment: Median lethal time (LT50) test, parasitic wasp (natural enemy); settings: non-target parasitic wasp
Procedure: (§3) Insect Egg Parasitic Wasp (Natural Enemy). […] Both species were purchased from a commercial source. One- to two-day-old adults (after eclosion) were used for fumigation tests.
Median Lethal Time (LT50) and Median Knockdown Concentration (KC50) Tests. Five species of adult insects or natural enemies were tested for LT50 values including melon fly (B. cucuribitae), red flour beetle (T. castaneum), Nitidulidae beetle (H. picinus), parasitic wasp (A. japonicus) and housefly (M. domestica). For each treatment and control, 20 insects at the developmental stages described above were placed individually without food in a 1-L wide-mouth glass bottle (height 19.5 cm, bottom diameter 10.5 cm, mouth i.d. 5.5 cm) containing pieces of tissue paper. […] Five different concentrations of the test chemicals were placed on pieces of cellulose-based qualitative filter paper. Each of the filter papers was placed in a bottle to have 5 appropriate concentrations in serial dilutions. DDVP was the positive control, and no chemical treatments were the negative control. All treatments and controls were in triplicate. Mortality was observed periodically in a 10-30 minute interval for 2 days or until all insects died. The death was defined as no movement when the insects were touched.

[2] = system: B. cucuribitae (melon fly); experiment: Median lethal time (LT50) test, melon fly; format: in vivo, Bactrocera cucuribitae
Text: as §1
(§4) Toxicity of Monoterpenes as Fumigants. […] Therefore, to determine how fast the monoterpenes act as fumigants, it was necessary to determine their LT50 values for the target organisms.

[3] = system: Aedes aegypti (Linnaeus) (mosquito)
Text: (§5) Median Lethal Concentration Tests. […] The species tested included Thrips (M. usitatus), spider mite (T. cinnabarinus), melon fly (B. cucuribitae), cockroach (B. lateralis), housefly (M. domestica), mosquito (A. aegypti), parasitic wasp (T. chilonis) and fruit fly (Drosophila melanogaster). After being exposed to the test chemicals for one hour, adult Thrips, spider mites, and roaches were transferred to another flask. In addition to fresh water, adult Thrips, spider mites, and roaches were then respectively fed with cowpea, fresh blade of eggplant, and peanut oil via filter. […] Mortality of melon fly was observed after three hours of exposure.

[4] = system: Tetranychus cinnabarinus (Boisduval) (spider mites)
Text: as §5

[5] = system: Musca domestica (Linnaeus) (housefly)
Text: as §5

[6] = system: Blatta lateralis (Walker) (cockroach)
Text: as §5

[7] = system: Bactrocera cucuribitae (Coquillett) (melon fly)
Text: as §5

[8] = cited from earlier work
[9] = system: Megalurothrips usitatus (flower Thrips); settings: for activity against flower Thrips in preliminary screening: adult M. usitatus, 24 hours of fumigation in 1-L flasks
[10] = system: Musca domestica (housefly); experiment: Median knockdown concentration (KC50) test, housefly; format: in vivo; settings: for KC50 (fiducial limits): Musca domestica
Text: as §1, §2

[11] = system: T. chilonis (parasitic wasp); settings: non-target parasitic wasp, mortality after 15 minutes of exposure
Text: as §3, §5

[12] = system: Megalurothrips usitatus (Bagrall) (thrips); experiment: Median lethal concentration fumigation test, thrips; settings: adult thrips, exposed one hour, mortality observed in 24 hours
Text: as §5

[13] = system: H. picinus (Nitidulid beetle); experiment: Median lethal time (LT50) test, Nitidulid beetle; format: in vivo, Haptoncus picinus
Text: as §1, §4

[14] = system: T. castaneum (red flour beetle); experiment: Median lethal time (LT50) test, red flour beetle; format: in vivo, Tribolium castaneum
Text: as §1, §4

M. domestica (housefly) = experiment: Median lethal time (LT50) test, housefly; format: in vivo, Musca domestica
Text: as §1, §4

[15] = system: Drosophila melanogaster (fruit fly); experiment: Median lethal concentration fumigation test, fruit fly; format: in vivo; settings: mortality after 280 minutes
adult T. palmi = settings: cited from earlier work
[16] = adult mosquito, exposed 30 minutes, mortality in 24 hours
[17] = adult housefly, exposed one hour, mortality in 24 hours
[18] = cockroach second instar nymphs, exposed one hour

| SMILES | KC50 (fiducial limits) (Aedes aegypti (mosquito); 30 Minutes) | LT50 (fiducial limits) against A. japonicus [1] | LT50 (fiducial limits) [2] | LC90 (fiducial limits) [3, 16] | LC90 (fiducial limits) ([4]; spider mites, exposed one hour) | LC90 (fiducial limits) [5, 17] | LC90 (fiducial limits) [6, 18] | LC90 (fiducial limits) ([7]; melon fly) | activity against flower Thrips in preliminary screening [9] | KC50 (fiducial limits) ([10]; 20 Minutes) | KC50 (fiducial limits) ([10]; 30 Minutes) | LC90 (fiducial limits) against T. chilonis [11] | LC90 (fiducial limits) [12] | LT50 (fiducial limits) [13] | LT50 (fiducial limits) [14] | LT50 (fiducial limits) (M. domestica (housefly)) | other results |
| --- | --- | --- | --- | --- | --- | --- | --- | --- | --- | --- | --- | --- | --- | --- | --- | --- | --- |
| Cc1ccc(C(C)C)cc1O [Carvacrol] | >243 µg/mL | 3.32 (2.05-7220) hour | 2.49 h | 3.92 µg/mL (≈ 26.1 µM) | 510 µg/mL (≈ 3390 µM) | >243 µg/mL | 118 µg/mL (≈ 786 µM) | >243 µg/mL | exhibit insecticidal activity | >243 µg/mL | >243 µg/mL | 7.08 µg/mL (≈ 47.1 µM) | >19.2 µg/mL | 1.94 h | 9.95 h | 2.30 h | KC50 (fiducial limits) (Aedes aegypti (mosquito); 10 Minutes): >243 µg/mL; KC50 (fiducial limits) (Aedes aegypti (mosquito); 20 Minutes): 6.0 µg/mL; LC50 (fiducial limits) [3, 16]: 0.77 µg/mL (≈ 5.13 µM); LC50 (fiducial limits) ([4]; spider mites, exposed one hour): 37.5 µg/mL (≈ 250 µM); LC50 (fiducial limits) [5, 17]: >243 µg/mL; LC50 (fiducial limits) [6, 18]: 84.5 µg/mL (≈ 563 µM); LC50 (fiducial limits) ([7]; melon fly): >243 µg/mL; Vp (Pa)/T (° C.) ([8]; T 25 °C): 3.99/25 Pa; KC50 (fiducial limits) ([10]; 10 Minutes): >7600 µg/mL; time within which the insects responded ([10]; houseflies): ≤ 10 min; LC50 (fiducial limits) against T. chilonis [11]: 826 µg/mL (≈ 5500 µM); LC50 (fiducial limits) [12]: >19.2 µg/mL |
| C=CCc1ccc(OC)cc1 [Estragole] | >8.1 µg/mL | 1.19 (1.02-1.37) hour | 1.69 h | 0.91 µg/mL (≈ 6.14 µM) | 21.0 µg/mL (≈ 142 µM) | 15.3 µg/mL (≈ 103 µM) | 15.3 µg/mL (≈ 103 µM) | 953 µg/mL (≈ 6430 µM) | exhibit insecticidal activity | >502 µg/mL | >243 µg/mL | 34.9 µg/mL (≈ 235 µM) | 1.29 µg/mL (≈ 8.7 µM) | 0.60 h | 8.23 h | 1.04 h | KC50 (fiducial limits) (Aedes aegypti (mosquito); 10 Minutes): >8.1 µg/mL; KC50 (fiducial limits) (Aedes aegypti (mosquito); 20 Minutes): 2.32 µg/mL; LC50 (fiducial limits) ([3]; in vivo): 0.25 µg/mL (≈ 1.69 µM); LC50 (fiducial limits) ([4]; in vivo): 3.28 µg/mL (≈ 22.1 µM); LC50 (fiducial limits) ([5]; in vivo): 5.89 µg/mL (≈ 39.7 µM); LC50 (fiducial limits) ([6]; in vivo): 24.1 µg/mL (≈ 163 µM); LC50 (fiducial limits) ([7]; in vivo): 483 µg/mL (≈ 3260 µM); LC50 (fiducial limits) against T. chilonis [11]: 1.64 µg/mL (≈ 11.1 µM); LC50 (fiducial limits) [12]: 0.24 µg/mL (≈ 1.62 µM); LC50 (fiducial limits) ([12]; listed as estragole): 0.241 µg/mL (≈ 1.63 µM) |
| C=C[C@](C)(O)CCC=C(C)C [(−)-Linalool] | – | – | – | – | – | – | – | – | – | – | – | – | – | – | – | – | Vp (Pa)/T (° C.) ([8]; T 23.5 °C): 21.20/23.5 Pa |
| COP(=O)(OC)OC=C(Cl)Cl [DDVP 80%, 2,2-Dichlorovinyl dimethyl phosphate, reference compound] | >0.081 µg/mL | 0.41 (0.07-0.49) hour | 0.89 h | 0.0028 µg/mL | 0.80 µg/mL | 0.53 µg/mL | 9.51 µg/mL | 0.0014 µg/mL | – | >2.7 µg/mL | >2.7 µg/mL | >3.75 µg/mL | 1.85 µg/mL | – | 2.70 h | – | LC90 (fiducial limits) [15]: 0.002 ng/mL |
| CC(C)=O [Acetone] | – | >48^a hour | >48^a ^ hour | – | – | – | – | – | – | – | – | – | – | >48^a ^ hour | >48^a ^ hour | >48^a ^ hour | mortality ([9]; in vivo): No mortality |
| C=C(C)[C@@H]1CC=C(C)CC1 [(−)-Limonene] | – | – | – | – | – | – | – | – | not active | – | – | – | – | – | – | – | Vp (Pa)/T (° C.) ([8]; T 25 °C): 206.65/25 Pa |
| CC12CCC(CC1=O)C2(C)C (racemic) [(±)-camphor, reference compound] | – | – | – | – | – | – | – | – | – | – | – | – | – | – | – | – | LC50, fumigation toxicity (adult T. palmi): 9.7 µg/mL (≈ 63.7 µM) |
